# According to patent publication US7414060B2, “Pyridine-2-carboxyamide derivatives” (Hoffmann-La Roche Inc., priority 2005, dated 2008):
# Target: T1, human mGlu 5a receptor (Homo sapiens, UniProt P41594)
# T1 construct: expressed in transfected cells; host or cells: EBNA cells (transient transfection), cell membrane homogenates
# Experiment: [3H]MPEP competition binding on membranes of EBNA cells transfected with human mGlu 5a receptor
# Conditions: competition with [3H]MPEP (2 nM), 1 h at 4° C., human mGlu 5a receptor membranes; read-out: Ki (mGluR5)
# Experimental: The pharmacological activity of the compounds was tested using the following method: For binding experiments, cDNA encoding human mGlu 5a receptor was transiently transfected into EBNA cells using a procedure described by Schlaeger and Christensen [Cytotechnology 15:1-13 (1998)]. Cell membrane homogenates were stored at −80° C. until the day of assay where upon they were thawed and resuspended and polytronized in 15 mM Tris-HCl, 120 mM NaCl, 100 mM KCl, 25 mM CaCl2, 25 mM MgCl2 binding buffer at pH 7.4 to a final assay concentration of 20 μg protein/well.
# Saturation isotherms were determined by addition of twelve [^3H]MPEP concentrations (0.04-100 nM) to these membranes (in a total volume of 200 μl) for 1 h at 4° C. Competition experiments were performed with a fixed concentration of [^3H]MPEP (2 nM), and IC50 values of test compounds evaluated using 11 concentrations (0.3-10,000 nM). Incubations were performed for 1 h at 4° C.
# At the end of the incubation, membranes were filtered onto unifilter (96-well white microplate with bonded GF/C filter preincubated 1 h in 0.1% PEI in wash buffer, Packard Bio-Science, Meriden, Conn.) with a Filtermate 96 harvester (Packard BioScience) and washed 3 times with cold 50 mM Tris-HCl, pH 7.4 buffer. Nonspecific binding was measured in the presence of 10 μM MPEP. The radioactivity on the filter was counted (3 min) on a Packard Top-count microplate scintillation counter with quenching correction after addition of 45 μl of microscint 40 (Canberra Packard S. A., Zürich, Switzerland) and shaking for 20 min.
# The inhibition (antagonists) curves were fitted with a four parameter logistic equation giving IC50, and Hill coefficient using iterative non linear curve fitting software (Xcel fit).
# For binding experiments the Ki values of the compounds tested are given. The Ki value is defined by the following formula: Ki=IC50/[1+L/Kd] in which the IC50 values are those concentrations of the compounds tested which cause 50% inhibition of the competing radioligand ([^3H]MPEP). L is the concentration of radioligand used in the binding experiment and the Kd value of the radioligand is empirically determined for each batch of membranes prepared.
# T1 sequence (P41594 21-1180 isoform P41594-2 limits assumed): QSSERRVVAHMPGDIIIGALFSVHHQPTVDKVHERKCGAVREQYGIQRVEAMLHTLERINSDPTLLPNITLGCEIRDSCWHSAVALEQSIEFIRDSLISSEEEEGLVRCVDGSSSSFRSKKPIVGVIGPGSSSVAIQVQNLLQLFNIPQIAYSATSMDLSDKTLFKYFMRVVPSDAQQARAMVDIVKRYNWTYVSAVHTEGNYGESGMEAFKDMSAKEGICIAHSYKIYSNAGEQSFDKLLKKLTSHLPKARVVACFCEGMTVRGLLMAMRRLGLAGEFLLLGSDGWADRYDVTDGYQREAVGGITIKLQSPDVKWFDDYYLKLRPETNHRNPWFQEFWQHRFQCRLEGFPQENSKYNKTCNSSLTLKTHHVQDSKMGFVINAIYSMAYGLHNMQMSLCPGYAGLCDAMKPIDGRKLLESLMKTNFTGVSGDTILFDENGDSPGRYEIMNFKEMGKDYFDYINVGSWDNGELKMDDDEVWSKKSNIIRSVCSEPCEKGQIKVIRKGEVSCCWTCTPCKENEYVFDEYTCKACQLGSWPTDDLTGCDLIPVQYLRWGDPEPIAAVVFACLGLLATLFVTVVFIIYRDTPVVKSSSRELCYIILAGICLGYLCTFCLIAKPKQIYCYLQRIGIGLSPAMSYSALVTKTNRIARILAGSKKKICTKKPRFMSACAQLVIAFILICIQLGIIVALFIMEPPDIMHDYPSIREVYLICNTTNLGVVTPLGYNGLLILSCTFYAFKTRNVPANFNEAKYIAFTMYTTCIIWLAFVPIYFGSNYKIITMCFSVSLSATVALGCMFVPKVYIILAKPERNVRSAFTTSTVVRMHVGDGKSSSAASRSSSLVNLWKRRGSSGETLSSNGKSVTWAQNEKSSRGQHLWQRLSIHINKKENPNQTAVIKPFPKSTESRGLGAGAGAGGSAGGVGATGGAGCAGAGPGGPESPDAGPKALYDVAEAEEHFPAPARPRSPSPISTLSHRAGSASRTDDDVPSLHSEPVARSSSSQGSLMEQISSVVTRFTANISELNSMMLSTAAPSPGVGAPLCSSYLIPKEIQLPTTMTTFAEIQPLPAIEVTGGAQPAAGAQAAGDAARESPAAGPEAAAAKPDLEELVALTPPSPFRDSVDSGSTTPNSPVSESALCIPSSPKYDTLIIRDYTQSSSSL
row,Ki [nM],Molecule
1,30,"Cc1ccc(Nc2cncnc2)c(C(=O)Nc2cccc(Cl)c2)n1 [Example 2, 6-Methyl-3-(pyrimidin-5-ylamino)-pyridine-2-carboxylic acid (3-chloro-phenyl)-amide]"
2,42,"Cc1ccc(Nc2cccnc2)c(C(=O)Nc2ccnc(Cl)c2)n1 [Example 4, 6-Methyl-3-(pyridin-3-ylamino)-pyridine-2-carboxylic acid (2-chloro-pyridin-4-yl)-amide]"
3,21,"Cc1ccc(Nc2cccnc2)c(C(=O)Nc2ccc(F)cn2)n1 [Example 8, 6-Methyl-3-(pyridin-3-ylamino)-pyridine-2-carboxylic acid (5-fluoro-pyridin-2-yl)-amide]"
4,28,"Cc1csc(NC(=O)c2nc(C)ccc2Nc2cccnc2)n1 [Example 14, 6-Methyl-3-(pyridin-3-ylamino)-pyridine-2-carboxylic acid (4-methyl-thiazol-2-yl)-amide]"
5,27,"Cc1ccc(Nc2cccnc2)c(C(=O)Nc2ccn(C)n2)n1 [Example 16, 6-Methyl-3-(pyridin-3-ylamino)-pyridine-2-carboxylic acid (1-methyl-1H-pyrazol-3-yl)-amide]"
6,78,"Cc1ccc(Nc2cccnc2)c(C(=O)Nc2nc(C(F)(F)F)cs2)n1 [Example 18, 6-Methyl-3-(pyridin-3-ylamino)-pyridine-2-carboxylic acid (4-trifluoromethyl-thiazol-2-yl)-amide]"
7,66,"Cc1cc(NC(=O)c2nc(C)ccc2Nc2cncc(C#N)c2)ccn1 [Example 22, 3-(5-Cyano-pyridin-3-ylamino)-6-methyl-pyridine-2-carboxylic acid (2-methyl-pyridin-4-yl)-amide]"
8,82,"Cc1ccc(Nc2cncc(C(F)(F)F)c2)c(C(=O)Nc2ccn(C)n2)n1 [Example 51, 6-Methyl-3-(5-trifluoromethyl-pyridin-3-ylamino)-pyridine-2-carboxylic acid (1-methyl-1H-pyrazol-3-yl)-amide]"
9,55,"Cc1ccc(Nc2cccc(F)c2)c(C(=O)Nc2ccc(F)c(C)n2)n1 [Example 54, 3-(3-Fluoro-phenylamino)-6-methyl-pyridine-2-carboxylic acid (5-fluoro-6-methyl-pyridin-2-yl)-amide]"
10,367,"Cc1ccc(Nc2cccc(C#N)c2)c(C(=O)Nc2nc(C(F)(F)F)cs2)n1 [Example 60, 3-(3-Cyano-phenylamino)-6-methyl-pyridine-2-carboxylic acid (4-trifluoromethyl-thiazol-2-yl)-amide]"
11,10,"Cc1ccc(Nc2ccnn2C)c(C(=O)Nc2csc(C)n2)n1 [Example 92, 6-Methyl-3-(2-methyl-2H-pyrazol-3-ylamino)-pyridine-2-carboxylic acid (2-methyl-thiazol-4-yl)-amide]"
12,14,"Cc1ccc(Nc2cc(C3CC3)nn2C)c(C(=O)Nc2ccc(F)c(C)n2)n1 [Example 103, 3-(5-Cyclopropyl-2-methyl-2H-pyrazol-3-ylamino)-6-methyl-pyridine-2-carboxylic acid (5-fluoro-6-methyl-pyridin-2-yl)-amide]"
13,56,"Cc1ccc(Nc2cncnc2)c(C(=O)Nc2ncc(C)s2)n1 [Example 106, 6-Methyl-3-(pyrimidin-5-ylamino)-pyridine-2-carboxylic acid (5-methyl-thiazol-2-yl)-amide]"

row,Molecule,Ki [nM]
1,6-Methyl-3-(1-methyl-1H-pyrazol-4-ylamino)-pyridine-2-carboxylic acid (5-fluoro-pyridin-2-yl)-amide [Example 96],57
